# From US12234257B2, “Triterpene saponin derivative and use thereof” (KOREA INSTITUTE OF SCIENCE AND TECHNOLOGY, priority 2020, dated 2025)
# What was measured:
# [1] = test system: MPTP-induced in vivo PD model; test: Rotarod test; design: species or system mice (C57BL/6j); details: MPTP 30 mg/kg i.p. mice; for behavioral performance in rotarod test (latency to fall): 2 hours and 24 hours after last MPTP
# Procedure: In this study, all animal management and experimental protocols were performed in compliance with guidelines of the Institutional Animal Care and Use Committee of the Korea Institute of Science and Technology. 40 mice (C57BL/6j, male, 8 weeks old) were purchased from SLC Inc. (Shizuoka, Japan). After arrival, every four mice were hosed in each cage (30 cm×18.5 cm×13 cm) and allowed free access to feed and water. All mice were housed under the following constant conditions: lights on from 6:00 to 18:00, a temperature of 23° C.±1° C., and a humidity of 50%±10%. After 7 days of a habituation period, the mice were used in the experiments according to standard protocols. 40 mice were classified into five groups such that eight mice belonged to each group. After the habituation period, all mice were orally administered with a drug every day. […] Each mouse was administered with a single dose of saline/MPTP injection every day for 8 days. At 7 days after the final MPTP injection, all mice were sacrificed by cervical dislocation, and then the whole brain, SNpc, and striatum (ST) were excised for biochemical analysis. […] A rotarod test was performed according to a known method with minimal modification (Borlongan C. V. et al., Pharmacology Biochemistry and Behavior. 1995, 52:225; Hu X. et al., Neuropharmacology, 2017, 117:352). Briefly, the test consisted of a pretraining section and a test section. The pretraining section was performed for consecutive 4 days. The mice were positioned in a cylinder of a rotarod apparatus such that tails of all mice faced an operator and trained for 300 seconds at a constant speed of 16 rpm. During the 300 seconds, mice falling to the floor were placed back on the cylinder by the operator. All mice were trained three times in total every day at an interval of about 30 minutes before administration of MPTP. […] Latency to fall off the rotarod was recorded for each mouse. […] Latency to fall off the rotarod was measured for each mouse. […] An average time of three tests was calculated to evaluate balance, grip strength, and motor coordination.
# [2] = test system: MPTP-induced in vivo PD model; test: Pole test; design: species or system mice (C57BL/6j); details: MPTP mice, 2 hours
# Procedure: In this study, all animal management and experimental protocols were performed in compliance with guidelines of the Institutional Animal Care and Use Committee of the Korea Institute of Science and Technology. 40 mice (C57BL/6j, male, 8 weeks old) were purchased from SLC Inc. (Shizuoka, Japan). After arrival, every four mice were hosed in each cage (30 cm×18.5 cm×13 cm) and allowed free access to feed and water. All mice were housed under the following constant conditions: lights on from 6:00 to 18:00, a temperature of 23° C.±1° C., and a humidity of 50%±10%. After 7 days of a habituation period, the mice were used in the experiments according to standard protocols. 40 mice were classified into five groups such that eight mice belonged to each group. After the habituation period, all mice were orally administered with a drug every day. […] Each mouse was administered with a single dose of saline/MPTP injection every day for 8 days. At 7 days after the final MPTP injection, all mice were sacrificed by cervical dislocation, and then the whole brain, SNpc, and striatum (ST) were excised for biochemical analysis. […] Each mouse was placed on the top of the pole with the head raised up, and a time taken for the mouse to turn and descend the pole was recorded up to 120 seconds with a stopwatch. […] An average time of three tests was calculated to evaluate motor function.
# [3] = test system: GFP-RFP-LC3-II puncta in SH-SY5Y cells; test: Tandem fluorescent protein quenching assay (RFP-GFP-LC3); type: cell-based, human; details: transfected SH-SY5Y cells, AKNS-2 10 μM alone vs control cells
# Procedure: SH-SY5Y cells were cultured in a 24-well plate at a density of 8×10^4 cells/well on a glass cover slip. Transfection was performed in accordance with guidelines of the autophagy tandem RFP-GFP-LC3B kit. After culturing the cells for 24 hours, the cells were treated with an LC3B reagent. After the transfected cells were incubated for 24 hours, 50 nM Wart or 100 nM Baf was administered thereto, and then AKNS-2 (10 μM) was added thereto. The cells were immobilized with 4% paraformaldehyde and permeabilized with 0.1% Triton X100. Nuclei thereof were stained with 4,6-diamidino-2-phenylindole (DAPI, 25 μg/mL). Fluorescent signals were detected using a confocal microscope (Leica, Solms, Germany).
Compound,behavioral performance in rotarod test (latency to fall) ([1]; 5 mg/kg p.o.),behavior performance in pole test ([2]; ropinirole (5 mg/kg p.o.)),accumulation of GFP-RFP-LC3-II puncta [3],"behavior performance in rotarod test (latency to fall) ([1]; 5 mg/kg p.o., at 24 hours)",behavioral performance in rotarod test (latency to fall) ([1]; 15 mg/kg p.o.),behavior performance in pole test ([2]; 5 mg/kg and 15 mg/kg p.o.)
"CCCN(CCC)CCc1cccc2c1CC(=O)N2 [ropinirole, reference compound]",the impairment was reversed,considerably restored,,,,
"C[C@@H]1O[C@@H](O[C@@H]2[C@@H](O)[C@H](O[C@@H]3[C@@H](O[C@@H]4OC[C@@H](O)[C@H](O)[C@H]4O)[C@@H](O)[C@H](O[C@H]4[C@H](OC(=O)[C@]56CCC(C)(C)C[C@H]5C5=CC[C@@H]7[C@@]8(C)C[C@H](O)[C@H](O[C@@H]9O[C@H](CO)[C@@H](O)[C@H](O[C@@H]%10OC[C@@H](O)[C@H](O)[C@H]%10O)[C@H]9O)[C@@](C)(CO)[C@@H]8CC[C@@]7(C)[C@]5(C)C[C@H]6O)OC[C@H](O)[C@@H]4O)O[C@H]3C)OC[C@H]2O)[C@H](O)[C@H](O)[C@H]1O [Compound 1, 3-O-β-D-xylopyranosyl-(1→3)-β-D-glucopyranosylpolygalacic acid 28-O-α-L-rhamnopyranosyl-(1→3)-β-D-xylopyranosyl-(1→4)-[β-D-xylopyranosyl-(1→3)]-α-L-rhamnopyranosyl-(1→2)-α-L-arabinopyranosyl ester]",,,more cytoplasmic puncta stained with green and red fluorescence were observed compared to in the control cells,significantly improved MPTP-impaired behavior performance,the impairment was reversed,considerably restored
